4 molecules from ChEMBL document CHEMBL1141411, “Structural characterization of daptomycin analogues A21978C1-3(d-Asn11) produced by a recombinant Streptomyces roseosporus strain” (2007) can be followed below.

By MIC is commonly meant the lowest concentration that inhibits growth of the organism. Read a high MIC as a need for much substance.

SMILES strings stand for the structures. In brackets after ≈: the same amount, converted by molar mass.

For this test, the system named is Staphylococcus aureus. Nature of the test: Antibacterial activity against Staphylococcus aureus 42 by broth microdilution method. It counts as functional. For orientation: In broth dilution the organism is exposed to a series of concentrations in liquid medium.
The molecule `CCC(C)CCCCCCCCC(=O)N[C@@H](Cc1c[nH]c2ccccc12)C(=O)N[C@H](CC(N)=O)C(=O)N[C@@H](CC(=O)O)C(=O)N[C@@H]1C(=O)NCC(=O)N[C@@H](CCCN)C(=O)N[C@@H](CC(=O)O)C(=O)N[C@H](C)C(=O)N[C@@H](CC(=O)O)C(=O)NCC(=O)N[C@H](CC(N)=O)C(=O)N[C@@H]([C@H](C)CC(=O)O)C(=O)N[C@@H](CC(=O)c2ccccc2N)C(=O)O[C@@H]1C` (some centres undefined) showed an MIC of 0.15 µM (≈ 0.253 µg/mL).

With `CC(C)CCCCCCCCC(=O)N[C@@H](Cc1c[nH]c2ccccc12)C(=O)N[C@H](CC(N)=O)C(=O)N[C@@H](CC(=O)O)C(=O)N[C@@H]1C(=O)NCC(=O)N[C@@H](CCCN)C(=O)N[C@@H](CC(=O)O)C(=O)N[C@H](C)C(=O)N[C@@H](CC(=O)O)C(=O)NCC(=O)N[C@H](CC(N)=O)C(=O)N[C@@H]([C@H](C)CC(=O)O)C(=O)N[C@@H](CC(=O)c2ccccc2N)C(=O)O[C@@H]1C`, the MIC is 0.3 µM (≈ 0.503 µg/mL).

`CCC(C)CCCCCCC(=O)N[C@@H](Cc1c[nH]c2ccccc12)C(=O)N[C@H](CC(N)=O)C(=O)N[C@@H](CC(=O)O)C(=O)N[C@@H]1C(=O)NCC(=O)N[C@@H](CCCN)C(=O)N[C@@H](CC(=O)O)C(=O)N[C@H](C)C(=O)N[C@@H](CC(=O)O)C(=O)NCC(=O)N[C@H](CC(N)=O)C(=O)N[C@@H]([C@H](C)CC(=O)O)C(=O)N[C@@H](CC(=O)c2ccccc2N)C(=O)O[C@@H]1C` (some centres undefined) returned an MIC of 0.6 µM (≈ 0.997 µg/mL).

With `CCCCCCCCCC(=O)N[C@@H](Cc1c[nH]c2ccccc12)C(=O)N[C@H](CC(N)=O)C(=O)N[C@@H](CC(=O)O)C(=O)N[C@@H]1C(=O)NCC(=O)N[C@@H](CCCN)C(=O)N[C@@H](CC(=O)O)C(=O)N[C@H](C)C(=O)N[C@@H](CC(=O)O)C(=O)NCC(=O)N[C@H](CO)C(=O)N[C@@H]([C@H](C)CC(=O)O)C(=O)N[C@@H](CC(=O)c2ccccc2N)C(=O)O[C@@H]1C`, the MIC is 0.6 µM (≈ 0.972 µg/mL).
